Assay results taken from article PMC9091350, “Sodium Tanshinone IIA Sulfonate as a Potent IDO1/TDO2 Dual Inhibitor Enhances Anti-PD1 Therapy for Colorectal Cancer in Mice” (Frontiers in Pharmacology, 2022).
Blank lines part the entries; values can stand above or below the compound they belong to.

What was measured:
Type in all cases: biochemical
[1] = target: T1, tryptophan 2,3-dioxygenase 2 (TDO2) (Homo sapiens, UniProt P48775); assay: purified recombinant enzyme assay, kynurenine absorbance at […] nm; also kynurenine reduction in TDO2-293T cells
T1 sequence (P48775 whole entry): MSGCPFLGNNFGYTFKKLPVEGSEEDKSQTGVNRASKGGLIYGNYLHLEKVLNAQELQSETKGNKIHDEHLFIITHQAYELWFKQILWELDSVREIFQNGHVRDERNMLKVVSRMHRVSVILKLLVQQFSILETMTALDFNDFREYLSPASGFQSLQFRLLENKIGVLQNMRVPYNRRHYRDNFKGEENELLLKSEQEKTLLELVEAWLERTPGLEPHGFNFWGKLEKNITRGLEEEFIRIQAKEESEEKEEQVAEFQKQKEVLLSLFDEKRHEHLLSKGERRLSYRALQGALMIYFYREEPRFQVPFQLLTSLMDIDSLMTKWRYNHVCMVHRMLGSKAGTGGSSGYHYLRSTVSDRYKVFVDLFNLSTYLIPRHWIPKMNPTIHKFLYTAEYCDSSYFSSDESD

[2] = target: T2, indoleamine 2,3-dioxygenase 1 (IDO1) (Homo sapiens, UniProt P14902); assay: purified recombinant enzyme assay, kynurenine absorbance at […] nm; also kynurenine reduction in IDO1-293T cells
T2 construct: full-length, N-terminal His-AK tag (His-AK-IDO1)
T2 sequence (P14902 whole entry): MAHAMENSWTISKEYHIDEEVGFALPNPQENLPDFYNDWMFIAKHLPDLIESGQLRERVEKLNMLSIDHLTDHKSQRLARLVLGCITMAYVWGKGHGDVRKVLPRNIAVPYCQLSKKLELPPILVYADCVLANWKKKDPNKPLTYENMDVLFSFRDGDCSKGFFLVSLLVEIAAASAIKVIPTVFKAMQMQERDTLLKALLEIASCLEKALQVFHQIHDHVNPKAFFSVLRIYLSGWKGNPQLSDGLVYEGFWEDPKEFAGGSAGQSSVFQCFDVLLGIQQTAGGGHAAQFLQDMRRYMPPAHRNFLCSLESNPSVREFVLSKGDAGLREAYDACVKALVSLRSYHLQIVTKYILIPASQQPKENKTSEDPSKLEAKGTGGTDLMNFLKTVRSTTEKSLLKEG

[3] = target: T1, tryptophan 2,3-dioxygenase 2 (TDO2); assay: purified recombinant enzyme assay, kynurenine absorbance at […] nm
[4] = target: T2, indoleamine 2,3-dioxygenase 1 (IDO1); assay: purified recombinant enzyme inhibitor screen (compounds at […]), kynurenine absorbance at […] nm

IC50 [1]: < 10 µM
IC50 [2]: < 10 µM
Compound: Cc1c(S(=O)(=O)O)oc2c1C(=O)C(=O)c1c-2ccc2c1CCCC2(C)C [STS, Sodium tanshinone IIA sulfonate]

Compound: Cc1coc2c1C(=O)C(=O)c1c-2ccc2c1CCCC2(C)C [TSN, tanshinone IIA]
purified recombinant enzyme assay, kynurenine absorbance at 490 nm [3]: TSN only reduced the activity of TDO2 but not IDO1 (Figure 1C)

Compound: COc1c(O)cc2oc3cc(O)c(CC=C(C)C)c(O)c3c(=O)c2c1CC=C(C)C [mangostin]
purified recombinant enzyme inhibitor screen (compounds at 10 μM), kynurenine ab [4]: several compounds, including mangostin and androstenedione, could inhibit the activity of IDO1 (Supplementary Figures S1A,B)
